The values that follow come from PubChem BioAssay AID1419 (Emory University Molecular Libraries Screening Center, 2008).

Calls of active or inactive are those of the source. No rule for the calls is given here. Some results are limits rather than exact numbers.

This assay can be described thus: EBV protein-peptide binding inhibitors, dose response, biochemical, fluorescence polarization (AID 1419). The note with it: cell-free protein-peptide binding, 2 h; for fold change: measured here: P channel fold over control, at 54 µM.

Regarding `COc1ccc2c(c1)c1nc3ccccc3nc1n2Cc1ccc(OC)c(OC)c1`, the IC50 is > 54 µM (inactive) and the fold change stood at 2.

As for `Cc1nn(C)c(C)c1N1C(=O)c2cccc3c(N)ccc(c23)C1=O`, the IC50 was less than 0.42 µM and the fold change amounted to 203.

For `CC(=O)Oc1ccc2c(c1)O/C(=C\c1ccncc1)C2=O`, the IC50 is 3.08 µM and the fold change is 10.9.

For the molecule `Cn1c(O)c(C=Nc2ccc(N3CCOCC3)cc2)c(=O)n(C)c1=S`, the IC50 is 18.9 µM and the fold change was determined as 6.36.

Take `C=CCSc1nccc(-c2cc(Cl)sc2Cl)n1`: the IC50 was > 54 µM (inactive) and the fold change stood at 0.953.

As for `CCN(CC)c1nc2ccccc2nc1C(C#N)C(=O)NCCc1ccccc1` (stereo unspecified), the IC50 is 1.37 µM and the fold change was 22.

In the case of `Cc1cc(C=C2C(=O)c3ccccc3C2=O)c(C)n1-c1ccc(Cl)cc1`, the IC50 is 8.5 µM and the fold change stood at 6.3.

With `Cc1nn(-c2ccccc2)c2c1C(c1ccccc1)C(C#N)=C(N)O2` (stereo unspecified), the IC50 was > 54 µM (inactive) and the fold change amounted to 1.01.

Regarding `O=C(Cn1cc2c(n1)CCCC2)NCc1ccccn1`, the IC50 was 25.9 µM and the fold change stood at 1.54.

On to `CCN1CC=C2C(C#N)=C(N)C(C#N)(C#N)C(c3cc(Cl)ccc3Cl)C2C1` (stereo unspecified), for which the IC50 is > 54 µM (inactive) and the fold change was 4.31.

With `NC(=O)c1cc2ccc(O)cc2oc1=NCc1ccccc1`, the IC50 is less than 0.42 µM and the fold change amounted to 34.3.

For the molecule `OCCCc1nc2n(n1)C(c1cccs1)C=C(c1ccc(Br)cc1)N2` (stereo unspecified), the IC50 was less than 0.42 µM and the fold change is 37.6.

Turning to `Cc1ccc[n+](-c2nc([O-])sc2C=O)c1`, the IC50 was 0.65 µM and the fold change worked out at 44.1.

For the molecule `N#C/C(=C\c1sc(N2CCOCC2)nc1-c1ccccc1)C(=O)Nc1cccc2ccccc12`, the IC50 was 30.8 µM (inactive) and the fold change worked out at 3.26.

On to `COc1ccc(N=Nc2nc3cc(Br)c(Br)cc3n2C)c(OC)c1`, for which the IC50 is 2.95 µM and the fold change amounted to 5.37.

For `COc1ccc(N=Cc2cc(Cc3ccccc3Cl)cc([N+](=O)[O-])c2O)cc1OC`, the IC50 is 13.8 µM and the fold change is 2.41.

Turning to `O=C1C(Br)=Cc2cccc3cccc1c23`, the IC50 was 2 µM and the fold change is 7.55.

Regarding `COc1ccccc1N1C(=O)C2C(C(=O)c3ccccc3)=NN(c3ccc(Br)cc3)C2C1=O` (stereo unspecified), the IC50 was > 54 µM (inactive) and the fold change turned out to be 16.6.

On to `COCCCNC(=O)c1ccc2c3c(onc13)-c1ccccc1C2=O`, for which the IC50 is less than 0.42 µM and the fold change was 217.

For `Cc1nn(-c2ccccc2)c2c1C(c1ccc(O)c(O)c1)N1C(=N2)C(Nc2ccccc2)=Nc2ccccc21` (stereo unspecified), the half-inhibitory concentration (IC50) was 6.05 µM and the fold change turned out to be 3.94.

Regarding `CCN(CC)c1ccc(N=Cc2c(O)n(CCc3ccc(OC)c(OC)c3)c(=O)[nH]c2=O)cc1`, the IC50 was > 54 µM (inactive) and the fold change was found to be 5.55.

As to `Nc1ccc2nc3c(=O)n(CCc4ccccc4)c(=O)[nH]c3nc2c1`, the IC50 is less than 0.42 µM and the fold change came to 94.8.

For `CC(=O)NC1C(OCCOc2ccc(Cl)cc2Cl)OC(COC(C)=O)C(OC(C)=O)C1OC(C)=O` (stereo unspecified), the IC50 was > 54 µM (inactive) and the fold change stood at 1.04.

With `CN1CCN(C2=Nc3c(Cl)cc(Cl)c4cccc2c34)CC1`, the IC50 is 9.23 µM and the fold change worked out at 3.09.

As for `Fc1ccc(NCc2cccnc2)cc1F`, the IC50 is 2.14 µM and the fold change amounted to 3.89.

For `CC(C)C[C@H]1C(=O)N2CCCC2[C@]2(O)O[C@](NC(=O)[C@@H]3C=C4c5cccc6[nH]cc(c56)CC4N(C)C3)(C(C)C)C(=O)N12` (stereo partly specified), the IC50 is 8.52 µM and the fold change was determined as 2.39.

Take `COCCOC(=O)c1sc(=S)n(CCOC)c1N`: the IC50 is 3.85 µM and the fold change turned out to be 2.45.

For `COc1ccc(C(CC(=O)N2CCOCC2)c2c(OC)cc(OC)c3c(-c4ccccc4)cc(=O)oc23)cc1` (stereo unspecified), the IC50 is > 54 µM (inactive) and the fold change was found to be 0.973.

For the molecule `CN1CC=C2C(C#N)=C(N)C(C#N)(C#N)[C@H](c3cccc(Cl)c3)C2C1` (stereo partly specified), the IC50 was 3.17 µM and the fold change came out at 4.79.

Take `COc1ccc(NC(=O)c2sc3nc(-c4cccnc4)ccc3c2N)cc1`: the half-maximal inhibitory concentration (IC50) was 2.44 µM and the fold change was found to be 6.91.

For `CCOc1ccc(Cn2c3ccc(OC)cc3c3nc4ccccc4nc32)cc1`, the IC50 is 1.15 µM and the fold change was 6.17.

For `O=c1[nH]c2ccc(N=Cc3c(O)ccc4cc(Br)ccc34)cc2[nH]1`, the IC50 is 0.97 µM and the fold change worked out at 7.85.

Consider `CSC1=NSC2=NC(=O)/C(=C\c3coc4ccccc4c3=O)C(=N)N12`, for which the IC50 was 2.74 µM and the fold change worked out at 82.6.

Consider `COc1ccc(C2C(C(=O)c3cccs3)=C(O)C(=O)N2c2nnc(C)s2)cc1OC` (stereo unspecified), for which the IC50 is 3.11 µM and the fold change was 10.8.

With `Fc1ccc(C2=CC(c3ccc(Br)o3)n3ncnc3N2)cc1` (stereo unspecified), the IC50 was 2.62 µM and the fold change amounted to 3.2.

On to `Cn1cc(/C=C2\SC(=O)NC2=S)c2ccccc21`, for which the IC50 is > 54 µM (inactive) and the fold change was 2.12.

As to `C=CCn1c(CSc2nc3ccccc3s2)nnc1SCC(=O)NCc1ccco1`, the IC50 was > 54 µM (inactive) and the fold change is 0.923.

Take `Nc1ccc2nc3c(=O)n(C4CCCCC4)c(=O)[nH]c3nc2c1`: the IC50 is less than 0.42 µM and the fold change is 101.

Turning to `COC(=O)c1c(Cl)c2n3ccccc3c(C)c(-c3ccccc3)c-2c1C(=O)OC`, the IC50 is 2.39 µM and the fold change was 2.2.

On to `CCCCCCOC(=O)C(C#N)c1nc2ccccc2nc1N1CCOCC1` (stereo unspecified), for which the IC50 was 14.6 µM and the fold change was 8.17.

`CC(=O)Nc1ccc(Nc2c3c4c(cccc4n(C)c2=O)C(=O)c2ccccc2-3)cc1`: the IC50 is less than 0.42 µM and the fold change came to 9.61.

As to `COc1ccc(-n2c(C)cc(/C=C3\SC(=S)N(Cc4ccco4)C3=O)c2C)cc1`, the IC50 is 7.24 µM and the fold change was 5.18.

Take `O=C1CSC(=S)N1/N=C/c1ccc(O)c(O)c1O`: the half-inhibitory concentration (IC50) is 2.61 µM and the fold change was determined as 1.04.

With `Cc1c(N=C2N=C(NC(=O)c3ccc(F)cc3)c3ccccc32)c(=O)n(-c2ccccc2)n1C`, the half-inhibitory concentration (IC50) was 6.56 µM and the fold change was found to be 6.09.

With `Cc1nn(-c2ccccc2)c(N2CCCC2)c1/C=C1\N=C(c2ccc(F)cc2)OC1=O`, the IC50 was 7.44 µM and the fold change came to 5.64.

For `COc1ccc(OC)c2c1C(=O)c1ccccc1C2=O`, the IC50 is less than 0.42 µM and the fold change was 41.6.

On to `CCOCCCNc1nc2c(C)cccn2c(=O)c1/C=C1\SC(=S)N(C(C)CC)C1=O` (stereo unspecified), for which the half-maximal inhibitory concentration (IC50) was 13.2 µM and the fold change was found to be 6.84.

On to `CCN(CC)c1ccc2cc(S(=O)(=O)c3ccc(Cl)cc3)c(=O)oc2c1`, for which the IC50 was 6.12 µM and the fold change was found to be 98.4.

Turning to `O=C(CCN1CCN(c2ccccc2)CC1)N/N=C/c1ccc(O)c(O)c1O`, the IC50 was > 54 µM (inactive) and the fold change amounted to 1.01.

With `Cc1ccc(/C=c2\sc3nc(-c4cccnc4)nn3c2=O)cc1`, the IC50 was > 54 µM (inactive) and the fold change was 1.13.

Regarding `Cc1c2ccccc2nc2c(F)c(NCCO)c(F)c(F)c12`, the IC50 is less than 0.42 µM and the fold change amounted to 40.1.

With `CCN(CC)c1ccc(N=Cc2c(O)n(-c3ccc(OC)cc3)c(=O)[nH]c2=O)cc1`, the IC50 was 6.01 µM and the fold change is 17.1.

Consider `CCn1c(O)c(/C=N/N=C/c2ccccc2)c2ccc(C3=NNC(=O)CC3)cc21`, for which the IC50 is 14.8 µM and the fold change was found to be 9.01.

As for `COC(=O)c1ccccc1NC(=O)CCS(=O)(=O)c1ccc(Br)cc1`, the IC50 was 12.2 µM and the fold change came out at 1.08.

On to `O=c1ccc2[n+]([O-])c3ccc(O)cc3oc-2c1`, for which the IC50 was 1.34 µM and the fold change came out at 5.06.

In the case of `O=C(CSc1nc(-c2ccc(F)cc2)nc2c1Cc1ccccc1O2)Nc1cccc(C(=O)O)c1`, the IC50 is 1.63 µM and the fold change worked out at 1.13.

On to `CCN(CC)c1ccc(/C=c2/sc3nnc(-c4ccccc4C)n3c2=O)cc1`, for which the IC50 was 3.39 µM and the fold change is 17.4.

In the case of `O=C(Cn1cnc2scc(-c3cccc([N+](=O)[O-])c3)c2c1=O)NCc1ccco1`, the IC50 was > 54 µM (inactive) and the fold change was 1.04.

For `O=Cc1cnc(N2CCCCC2)s1`, the IC50 was > 54 µM (inactive) and the fold change was found to be 1.06.

Turning to `c1ccc(-c2ccnc3nc(N4CCN(c5ccccc5)CC4)nn23)cc1`, the IC50 is > 54 µM (inactive) and the fold change was 0.987.

Take `COc1cccc(/C(O)=C/c2nc3ccc(C(=O)NCCc4ccc(Cl)cc4)cc3[nH]c2=O)c1`: the IC50 is less than 0.42 µM and the fold change was determined as 12.1.

Regarding `O=C(NCCCn1ccnc1)c1ccc2c(c1)OCCO2`, the IC50 is > 54 µM (inactive) and the fold change amounted to 1.03.

For the molecule `CCCSCC(=O)Nc1ncc2c(n1)-c1ccccc1CC2`, the half-inhibitory concentration (IC50) was 5.28 µM and the fold change worked out at 2.7.

For the molecule `CCSc1nc2sc3c(c2c(=O)[nH]1)CCCC3`, the IC50 was > 54 µM (inactive) and the fold change turned out to be 1.05.

For the molecule `O=C(COC(=O)c1c2c(nc3ccccc13)/C(=C/c1ccco1)CC2)NC1CCCC1`, the IC50 is > 54 µM (inactive) and the fold change came out at 2.02.

Turning to `CC(C)COc1ccc(C(=O)NC(CC(C)C)C(=O)O)cc1` (stereo unspecified), the IC50 is > 54 µM (inactive) and the fold change stood at 1.07.

As to `C=CCn1c(O)c(N=Nc2ccccc2C)c2ccccc21`, the IC50 was 14.9 µM and the fold change was found to be 12.4.

As for `Nc1ccc2c(c1Cl)C(=O)c1ccc(N)c(Cl)c1C2=O`, the IC50 is 11.4 µM and the fold change amounted to 1.07.
